# Test results from PMC8583782, “Screening for the Active Anti-Inflammatory and Antioxidant Polyphenols of Gaultheria procumbens and Their Application for Standardisation: From Identification through Cellular Studies to Quantitative Determination” (International Journal of Molecular Sciences, 2021).
# Target: T1, HYAL (bovine testis hyaluronidase) (Bos taurus, UniProt Q2YDK3)
# T1 construct: gene SPAM1; commercial native preparation from bovine testis (Merck)
# T1 sequence (Q2YDK3 36-553): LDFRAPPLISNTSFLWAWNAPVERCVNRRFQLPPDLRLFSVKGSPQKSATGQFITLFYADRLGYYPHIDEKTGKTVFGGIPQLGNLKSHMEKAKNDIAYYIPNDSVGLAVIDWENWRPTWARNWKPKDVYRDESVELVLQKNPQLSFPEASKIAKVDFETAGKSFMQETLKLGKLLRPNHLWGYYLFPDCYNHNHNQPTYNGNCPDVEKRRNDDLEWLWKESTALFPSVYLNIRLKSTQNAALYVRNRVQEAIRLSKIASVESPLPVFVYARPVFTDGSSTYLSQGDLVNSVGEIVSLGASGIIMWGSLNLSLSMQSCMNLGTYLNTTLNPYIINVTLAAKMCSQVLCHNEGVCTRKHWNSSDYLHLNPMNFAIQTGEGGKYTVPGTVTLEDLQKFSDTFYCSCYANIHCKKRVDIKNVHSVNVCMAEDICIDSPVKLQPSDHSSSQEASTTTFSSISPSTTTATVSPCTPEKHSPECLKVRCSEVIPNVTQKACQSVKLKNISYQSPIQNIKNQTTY
# Test: hyaluronidase inhibition assay
# Format: biochemical
# Conditions: positive control; read-out: Anti-Inflammatory Activity / HYAL / IC50 (μM) ^a
# Source text: hyaluronidase inhibition assay on HYAL (bovine testis hyaluronidase)
row,IC50 [µM],Structure (SMILES)
1,36.1 ± 2.68,"C[C@@H]1C[C@H]2[C@@H]3CCC4=CC(=O)C=C[C@]4(C)[C@@]3(F)[C@@H](O)C[C@]2(C)[C@@]1(O)C(=O)CO [DEX, dexamethasone, reference compound]"
2,35.7 ± 5.34,"COc1ccc2c(c1)c(CC(=O)O)c(C)n2C(=O)c1ccc(Cl)cc1 [IND, indomethacin, reference compound]"

# Same assay, conditions: tested at […]; read-out: Anti-Inflammatory Activity / HYAL / IC50 (μM) ^a
row,IC50 [µM],Structure (SMILES)
1,81.9 ± 3.96,"Oc1cc(O)c2c(c1)O[C@H](c1ccc(O)c(O)c1)[C@H](O)C2 [ECA, (−)-epicatechin]"
2,102 ± 6.09,"O=c1c(O)c(-c2ccc(O)c(O)c2)oc2cc(O)cc(O)c12 [QU, quercetin]"
3,37.4 ± 1.78,"Oc1cc(O)c2c(c1)O[C@H](c1ccc(O)c(O)c1)[C@H](O)[C@H]2c1c(O)cc(O)c2c1O[C@H](c1ccc(O)c(O)c1)[C@H](O)C2 [PB2, epicatechin-(4β→8)-epicatechin]"
4,80.7 ± 3.42,"O=C(/C=C/c1ccc(O)c(O)c1)O[C@@H]1C[C@](O)(C(=O)O)C[C@@H](O)[C@H]1O [CHA, 5-O-caffeoylquinic acid]"
5,98.1 ± 2.31,"O=C(O)[C@H]1O[C@@H](Oc2c(-c3ccc(O)c(O)c3)oc3cc(O)cc(O)c3c2=O)[C@H](O[C@@H]2OC[C@@H](O)[C@H](O)[C@H]2O)[C@@H](O)[C@@H]1O [DGQ, quercetin 3-O-β-D-xylopyranosyl-(1→2)-β-D-glucuronopyranoside]"
6,98.2 ± 4.41,"O=C(O)[C@H]1O[C@@H](Oc2c(-c3ccc(O)c(O)c3)oc3cc(O)cc(O)c3c2=O)[C@H](O)[C@@H](O)[C@@H]1O [MQ, quercetin 3-O-β-D-glucuronopyranoside]"
7,64 ± 2.87,"COC(=O)c1ccccc1O[C@@H]1O[C@H](CO[C@@H]2OC[C@@H](O)[C@H](O)[C@H]2O)[C@@H](O)[C@H](O)[C@H]1O [GT, methyl salicylate 2-O-β-D-xylopyranosyl-(1→6)-β-D-glucuronopyranoside]"
